In US20110195924A1, “Methods of Inhibiting the Interaction Between S100P and the Receptor for Advanced Glycation End-Products” (priority 2008, published 2011):

Legend:
SW480 colon cells = experiment: SW480 colon cell proliferation; format: cell-based; settings: cromolyn 100 μM, up to three days
Method: SW480 colon cells were cultured for up to three days in the presence of cromolyn (100 μM), and cell proliferation was analyzed. *, P<0.05.

SKOV3 ovarian cells = experiment: SKOV3 ovarian cell viability with taxol; format: cell-based; settings: taxol 5 μM, cromolyn 10 μM, 48 hours
Method: SKOV3 ovarian cells were plated and treated with taxol (5 μM) either in the presence or absence of cromolyn (10 μM) for 48 hours. Cell viability was analyzed after 48 hours. *, P<0.05.

S100B with RAGE = target: T1, S100B with RAGE (Homo sapiens, UniProt P04271); experiment: ELISA of S100B binding to RAGE (sRAGE coated plate)
T1 sequence (P04271 1-92): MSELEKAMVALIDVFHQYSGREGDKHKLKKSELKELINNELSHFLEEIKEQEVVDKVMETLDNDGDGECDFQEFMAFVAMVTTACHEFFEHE
Excerpt: After removing un-bound S100B by washing with detergent, bound S100B and RAGE complex was quantified by adding HRP labeled antibody against S100B.

NFκB promoter activity = experiment: NFκB luciferase activity in vivo, orthotopic BxPC-3 tumors; set-up: species or system mice
Method: FIGS. 3A, 3B, and 3C show the effect of cromolyn on S100P stimulated NFκB promoter activity in pancreatic cancer cells in vitro and in vivo. Panc-1 and BxPC-3 pancreatic cancer cell lines stably expressing an NFκB luciferase reporter were examined for the effects of S100P and cromolyn. […] Means and 95% confidence intervals are shown for three independent experiments performed in triplicate. *, P=0.022, †, P<0.001, and P<0.001 versus control; #, P=0.005 versus 100 nM S100P alone. […] Means and 95% confidence intervals are shown for three independent experiments performed in triplicate. *, P=0.003, †, P<0.001 versus control. […] After 1 week, tumor growth was assessed and NFκB activity was analyzed using an IVIS system (Xenogen Corp., Alameda, Calif.) after injecting mice with D-luciferin (150 mg per kg body weight) (0 time point). The mice were treated with cromolyn (5 mg per kg body weight by intraperitoneal injection), and NFκB luciferase activity was analyzed again at 24 and 48 hours. *, P=0.005 versus control. Means and 95% confidence intervals are shown for two independent experiments (n=4 mice per group). Two-tailed two-sample (unpaired for in vitro and paired for in vivo studies) Student's t-tests were used to determine P values. To measure NFκB promoter activity in vivo, BxPC-3 cells (50,000/50 μL) stably expressing a Lenti-NFkB-luc reporter were transplanted orthotopically into the pancreas of 4-week-old male CB17 scid mice (n=4 mice per experiment). After 1 week mice were injected with D-luciferin (150 mg per kg body weight, i.p.), and basal NFκB activity was determined using the IVIS system. Subsequently, mice were injected with cromolyn (5 mg per kg body weight, i.p.), and NFκB luciferase activity was re-analyzed after 24 and 48 hours. These experiments were performed three times. To determine whether cromolyn treatment could also reduce NFκB activity in vivo, NFκB activity of BxPC-3 cells stably expressing an NFκB luciferase reporter construct that had been transplanted orthotopically into the pancreas of […] (n=4) was examined. After 1 week, NFκB luciferase activity was determined before (0 time point) and at 24 and 48 hours after a single dose of cromolyn (5 mg per kg body weight by intraperitoneal [i.p.] injection). Cromolyn administration reduced basal NFκB activity by at least 80% 24 hours after injection (0 h, mean=9.9×10^6 versus 24 h, mean=1.3×10^6 photons/sec, difference=8.6×10^6 photons/sec, 95% CI=3.1×10^6 to 1.4×10^7 photons/sec; P=0.005, FIG. 3C).

PC3 prostate cells = experiment: PC3 prostate cell viability with taxol; format: cell-based; settings: taxol 100 nM, cromolyn 10 μM, 48 hours
Method: PC3 prostate cells were plated and treated with taxol (100 nM) either in the presence or absence of cromolyn (10 μM) for 48 hours. Cell viability was analyzed after 48 hours. *, P<0.05.

S100P = target: T2, S100P (Homo sapiens, UniProt P25815); experiment: S100P binding to cromolyn using affinity chromatography; settings: cromolyn coupled to AF-TOYOPEARL; control column did not retain
T2 construct: full-length human S100P cDNA (NM_005980) was cloned into the pTrcHis2 vector; made in house; host or cells: bacteria (pTrcHis2 vector, IPTG induction)
T2 sequence (P25815 1-95): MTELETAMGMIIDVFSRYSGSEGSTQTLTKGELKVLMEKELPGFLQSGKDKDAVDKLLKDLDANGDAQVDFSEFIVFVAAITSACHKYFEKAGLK
Method: Cromolyn was coupled with the amino group of AF-amino TOYOPEARL to generate a cromolyn affinity column. A negative control column was prepared by blocking the amino group. Purified S100P was added to both columns, which were then washed extensively. Protein was eluted from the columns using EGTA and subjected to sodium dodecylsulfate polyacrylamide gel electrophoresis and staining with Commassie blue. Lane 1 of the gel is the molecular weight marker; lane 2 is the eluate from the control column; and lane 3 is the eluate from the cromolyn column (arrow, S100P). The gel shown is one of three independent experiments.
Cromolyn was coupled to AF-TOYOPEARL resin as described in Shishibori, et al., Three distinct anti-allergic drugs, amlexanox, cromolyn and tranilast, bind to S100A12 and S100A13 of the S100 protein family; Biochem. J. 1999 Mar. 15;338 (Pt 3):583-9. Briefly, 0.1 grams of cromolyn was dissolved in 1 mL of N,N-dimethylformamide and added to 7 mL (5 grams wet mass) AF-TOYOPEARL. Next, 0.5 grams of N-ethyl-N-(3-dimethylaminopropyl)carbodiimide hydrochloride, suspended in 10 mL of N,N-dimethylformamide, was added to the cromolyn+AF-TOYOPEARL slurry. The pH was adjusted to 5.0, and the slurry was incubated with gentle shaking for 48 hours at 25° C. As a negative control, a column was prepared by blocking the amino group of AF-TOYOPEARL with sodium acetate and acetic anhydride. […]

interaction of S100B with RAGE (S100B with RAGE): inhibit
retention of S100P on cromolyn affinity column (S100P): retained S100P
Structure (SMILES): O=C(O)c1cc(=O)c2c(OCC(O)COc3cccc4oc(C(=O)O)cc(=O)c34)cccc2o1 [cromolyn, disodium 1,3-bis[(2′-carboxylatochromon-5′-yl)oxy]-2-hydroxypropane]
growth of SW480 cells (SW480 colon cells): reduced growth
cell killing effect of taxol on ovarian cancer cells (SKOV3 ovarian cells): increased the cell killing effect of taxol
NFκB luciferase activity, difference 0 h versus 24 h (NFκB promoter activity; cromolyn 5 mg per kg i.p., 24 h): 8.6×10^6 photons/sec
NFκB luciferase activity, mean (NFκB promoter activity; cromolyn 5 mg per kg i.p., 24 h, 0 h mean 9.9×10^6): 1.3×10^6 photons/sec
NFκB activity (NFκB promoter activity; cromolyn 5 mg per kg i.p., 48 hours after injection): returned to control levels
reduction of basal NFκB activity (NFκB promoter activity; single dose cromolyn 5 mg per kg i.p., 24 hours after injection): at least 80%
cell killing effect of taxol on prostate cancer cells (PC3 prostate cells): increased the cell killing effect of taxol
